Among the data in BindingDB's records for patent US12310975 (Arvinas Operations, 2025) are IC50 values, retold here.

The target in this test is B-cell lymphoma 6 protein (Homo sapiens, UniProt P41182). The experiment in a line: BCL6 TR-FRET Protocol. On the procedure: Assay buffer A: 50 mM HEPES pH 7.5, 125 mM NaCl, 0.01% TritonX.Assay buffer B (made fresh): buffer A+1 mM Glutathione (or 0.5 mM DTT).Assay buffer C (made fresh): buffer B+0.03% BSA.Black Proxy plates, 96 well.15 μl final reaction volumes (BCoR-Cy5 100 nM, SA-Eu 2 nM, BCL6-avitag 2 nM).134 μM BCL6-Avitag-Biotin stock: made fresh by adding 2 μl of BCL6-Avitag-Biotin to 31.5 ml Buffer C.1 mM BCoR-Cy5 peptide (LifeTein) stock in Dimethylformamide (DMF).300 nM BCoR-Cy5 working stock: made fresh by adding 4.5 μl of the 1 mM BCoR-Cy5 peptide stock to 15 ml Buffer B.10 μM Eu-Streptavidin (Lance Eu-W1024 Streptavidin, PerkinElmer) stock solution.6 nM Eu-Streptavidin working stock: made fresh by adding 9 μl Eu-Streptavidin stock solution to 15 ml Buffer A.Compounds were diluted to 10 mM. Twenty microliters of DMSO was aliquoted to each well of the microtiter plates. From the 10 mM compound stock, 8.7 ul was aliquoted to the 20 ul DMSO and 3-fold serial dilutions (12 pt […] tritration plate, 96 well, 100% DMSO) performed. Five ul from the titration plate wells was aliquoted to 45 ul Buff C (Intermediate dilution plates, 10% DMSO).Spot 1.5 μl compound titrations to 384-well plates in duplicate, and spot 3.5 μl [8.5 nM] BCL6-bio protein to each well. The plate was mix briefly, centrifuged, and incubated for 30 minutes at room temperature.Mix 14 mls of BCoR-Cy5 [300 nM] and 14 mls [6 nM] Eu-Streptavidin. Spot 10 μl BCoR-Cy5/SA-Eu (1:1) mix to each well. The plates were incubated for 2 hours and then read on an Envision plate reader.
In general terms: TR-FRET usually uses a lanthanide donor and a delayed reading to cut background.

As a reminder, the IC50 is the concentration that inhibits the measured activity by half. The low end stands for greater potency in that assay, the high end for weaker potency in that assay. `Cn1c(=O)c(OC2COC2)cc2cc(Nc3nc(N4CCC(CN5CCN(c6ccc7c(c6)C(=O)N(C6CCC(=O)NC6=O)C7=O)CC5)CC4)ncc3Cl)ccc21` (configuration not stated) [US12310975, Example 223] displayed an IC50 above 100 nM.

In the case of `CNC(=O)COc1cc2cc(Nc3cc(N4CCN(CC5CCN(c6ccc7c(c6)C(=O)N(C6CCC(=O)NC6=O)C7=O)CC5)CC4)ncc3Cl)ccc2n(C)c1=O` (configuration not stated) [US12310975, Example 253], the IC50 is below 10 nM.

The compound `CNC(=O)COc1cc2cc(Nc3cc(N4CCN(C(C)(C)C5CCN(c6ccc7c(c6)C(=O)N(C6CCC(=O)NC6=O)C7=O)CC5)CC4)ncc3Cl)ccc2n(C)c1=O` (configuration not stated) [US12310975, Example 261] displayed an IC50 above 100 nM.

`CCC(C1CCN(c2ccc3c(c2)C(=O)N(C2CCC(=O)NC2=O)C3=O)CC1)N1CCN(c2ncc(Cl)c(Nc3ccc4c(c3)cc(OCC(=O)NC)c(=O)n4C)n2)CC1` (configuration not stated) [US12310975, Example 337] yielded an IC50 below 10 nM.

In turn, `CNC(=O)COc1cc2cc(Nc3nc(N4CCN(CC5CCN(c6cc(OC)cc7c6C(=O)N(C6CCC(=O)NC6=O)C7=O)CC5)CC4)ncc3Cl)ccc2n(C(C)C)c1=O` (configuration not stated) [US12310975, Example 414] yielded an IC50 below 10 nM.

On to `CNC(=O)COc1cc2cc(Nc3nc(N4CCC(CN5CCC6(CC5)CN(c5cccc(C(=O)NC7CCC(=O)NC7=O)c5F)C6)CC4)ncc3Cl)ccc2n(C(C)C)c1=O` (configuration not stated) [US12310975, Example 419], for which the IC50 was below 10 nM.

`CNC(=O)COc1cc2cc(Nc3nc(N4CC5(CCN(CC6CCN(c7cccc8c7C(=O)N(C7CCC(=O)NC7=O)C8=O)CC6)CC5)C4)ncc3Cl)ccc2n(C(C)C)c1=O` (configuration not stated) [US12310975, Example 426] registered an IC50 below 10 nM.

Consider `CNC(=O)COc1cc2cc(Nc3nc(N4CCC(OC5CC6(CCN(c7cccc(C(=O)NC8CCC(=O)NC8=O)c7F)CC6)C5)CC4)ncc3Cl)ccc2n(C(C)C)c1=O` (configuration not stated) [US12310975, Example 433], for which the IC50 is above 100 nM.

Compound `CNC(=O)COc1cc2cc(Nc3nc(N4CCC(OC5CC6(CCN(c7cccc(C(=O)NC8CCC(=O)NC8=O)c7OC)CC6)C5)CC4)ncc3Cl)ccc2n(C(C)C)c1=O` (configuration not stated) [US12310975, Example 449] returned an IC50 above 100 nM.

`CNC(=O)COc1cc2cc(Nc3nc(N4CCN(C(C)(C)C5CCN(c6ccc(OC)c(C(=O)NC7CCC(=O)NC7=O)c6F)CC5)CC4)ncc3Cl)ccc2n(C)c1=O` (configuration not stated) [US12310975, Example 468] registered an IC50 below 10 nM.

For the compound `CNC(=O)COc1cc2cc(Nc3nc(N4CCC(C5(N6CCC(c7ccc8c(c7)C(=O)N(C7CCC(=O)NC7=O)C8=O)CC6)CC5)CC4)ncc3Cl)ccc2n(C)c1=O` (configuration not stated) [US12310975, Example 482], the IC50 is below 10 nM.

`CNC(=O)COc1cc2cc(Nc3nc(N4CCC(CN5CCCN(c6cccc(N7CCC(=O)NC7=O)c6)CC5)CC4)ncc3Cl)ccc2n(C(C)C)c1=O` [US12310975, Example 498]: the IC50 was above 100 nM.
